How the values were obtained:
BV-2 [1] = test: Antiinflammatory activity against mouse BV2 cells assessed as inhibition of LPS-induced NO production incubated for 30 mins prior to LPS-challenge measured after 24 hrs by Griess assay; type: functional, cell-based
A549 = test: Cytotoxicity against human A549 cells by sulforhodamine B assay; type: functional, cell-based
SK-OV-3 = test: Cytotoxicity against human SKOV3 cells by sulforhodamine B assay; type: functional, cell-based
HCT-15 = test: Cytotoxicity against human HCT15 cells by sulforhodamine B assay; type: functional, cell-based
SK-MEL-2 = test: Cytotoxicity against human SK-MEL-2 cells by sulforhodamine B assay; type: functional, cell-based
BV-2 [2] = test: Cytotoxicity against mouse BV2 cells by MTT assay; type: cell-based

Q: What does the source list for C=C1C[C@]23C[C@@]1(O)CC[C@H]2c1cc2c(C(=O)O)coc2c(C)c1[C@@H]3C(=O)O?
A: IC50 (BV-2 [1]): 32.9 µM; IC50 (A549): 15.7 µM; IC50 (SK-OV-3): 4.83 µM; IC50 (HCT-15): 6.79 µM; IC50 (SK-MEL-2): 8.36 µM; Activity (BV-2 [2]): Non-toxic

— ChEMBL document CHEMBL2407053, “Pharbinilic acid, an allogibberic acid from morning glory (Pharbitis nil)” (J Nat Prod, 2013)
